This note sets out measurements from patent US20240180886A1, “INHIBITORS OF PROTEIN TYROSINE PHOSPHATASE, COMPOSITIONS, AND METHODS OF USE” (BRISTOL-MYERS SQUIBB COMPANY, priority 2022, published 2024).

SMILES strings stand for the structures.

Assay [1] addresses T1, PTPN2 (Homo sapiens (Human), UniProt P17706). The assay is described as follows: PhosphoSens assay (PTPN2 BCHEM). The class given is biochemical. To be noted: substrate AQT0264 20 μM, PTPN2 150 pM. The procedure: A PhosphoSens® kinase assay was performed as described by the vendor (AssayQuant Technologies, Marlborough, MA). Briefly, 1000× solutions of compounds were prepared in DMSO via serial dilution of the 10 mM DMSO stocks using 3-fold intervals in a 384-well reagent plate. 50 nL of the compound dilution series was then added to the corresponding wells of a 384-well assay plate. […] Finally, […] of 5× PTPN2 enzyme stock was added to each well of the assay plate for a final enzyme concentration of 150 pM. Reaction progress curves were collected by sampling fluorescence intensity at the excitation wavelength 360 nm (λex360) and emission wavelength 480 nm (λem480) every 71 seconds for one hour using a Synergy H4 plate reader (BioTek Instruments/Agilent Technologies, Winooski, VT) at room temperature.
Target sequence in this assay (P17706 whole entry): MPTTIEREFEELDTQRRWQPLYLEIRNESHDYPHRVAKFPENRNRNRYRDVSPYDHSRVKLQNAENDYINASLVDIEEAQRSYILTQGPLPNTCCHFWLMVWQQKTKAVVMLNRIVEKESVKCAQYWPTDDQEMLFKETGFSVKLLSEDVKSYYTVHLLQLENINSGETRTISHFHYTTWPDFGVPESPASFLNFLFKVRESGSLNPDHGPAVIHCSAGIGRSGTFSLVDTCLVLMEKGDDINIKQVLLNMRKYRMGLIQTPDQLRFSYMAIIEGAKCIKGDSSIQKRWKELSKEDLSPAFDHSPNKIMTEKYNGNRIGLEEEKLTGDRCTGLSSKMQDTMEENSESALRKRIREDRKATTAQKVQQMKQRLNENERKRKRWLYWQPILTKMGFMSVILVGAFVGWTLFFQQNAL

In assay [2] the target is T1, PTPN2. The assay is described as follows: Phosphatase activity assay using DiFMUP as substrate. As to conditions: PTPN2 0.15 nM, 10 mM DTT. The assay is classed as biochemical. The procedure:
The PTPN2 biochemical assay was performed as follows, a 5× stock solution of human PTPN2 (SRP5075, MilliporeSigma, Burlington, MA) and a 1.25× stock solution of DiFMUP (D6567, ThermoFisher Scientific, Waltham, MA), were prepared in 1× reaction buffer consisting of 50 mM HEPES, pH 7.4, 1 mM EDTA, 150 mM NaCl, 0.2 mg/mL BSA, 100 U/mL catalase and 10 mM DTT. […] of the DiFMUP substrate solution, for a final concentration of […] DiFMUP substrate, was added to a Corning 3574 384-well, white, non-binding surface microtiter plate containing […] of serially diluted test compounds prepared in DMSO. The reactions were started with the addition of […] of the enzyme solution, for a final PTPN2 concentration of 0.15 nM, and monitored every 105 seconds for 60 minutes at λEX 360/λEM 460 in a BioTek Synergy HTX plate reader (Agilent Technologies, Santa Clara, CA) at room temperature. The initial linear portions of the progress curves were fit according to a linear equation to yield the slopes and converted to % inhibition based on a value of 100% activity for the no inhibitor treated control. IC50 values of each compound were obtained by fitting the % inhibition-compound concentration curves using Dotmatics software (Dotmatics, Bishops Stortford, Hertfordshire, England),
Target sequence in this assay (P17706 other isoform, or with tags, fused parts or gaps isoform P17706-2): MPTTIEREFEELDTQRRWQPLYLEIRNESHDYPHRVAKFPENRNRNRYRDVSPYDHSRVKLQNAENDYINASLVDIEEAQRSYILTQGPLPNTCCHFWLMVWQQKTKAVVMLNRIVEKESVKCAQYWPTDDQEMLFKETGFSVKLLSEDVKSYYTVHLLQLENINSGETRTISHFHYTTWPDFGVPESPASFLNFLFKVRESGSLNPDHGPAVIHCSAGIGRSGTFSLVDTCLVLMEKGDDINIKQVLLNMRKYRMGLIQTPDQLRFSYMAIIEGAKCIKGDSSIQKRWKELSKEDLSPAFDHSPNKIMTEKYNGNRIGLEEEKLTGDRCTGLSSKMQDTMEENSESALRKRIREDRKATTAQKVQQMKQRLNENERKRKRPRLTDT

Assay [3] has as its system phosphorylated STAT1 in B16-F10 cells. The assay is described as follows: Phospho-STAT1 (Tyr701) HTRF assay in B16-F10 cells with IFN-gamma. The assay is classed as cell-based. To be noted: mouse IFN-gamma 100 ng/mL, 1 hour, read-out: pSTAT1 HTRF B16F10 EC50. How it is done:
B16-F10 cells (ATCC, Manassas, VA, #CRL-6475) were cultured in DMEM growth medium (ThermoFisher Scientific, Waltham, MA, #11995-040) supplemented with 10% heat-inactivated FBS (ThermoFisher Scientific, #16140-071) and 1% pen/strep (ThermoFisher Scientific, #15140-122). The cells were seeded into a white opaque 384-well tissue culture treated microplate (PerkinElmer, Waltham, MA, #6007688) at a density of 10,000 cells/well in 20 uL total volume and incubated overnight at 37 C and 5% CO2. 30 nL of compounds dissolved in DMSO were then transferred from a source plate into target wells with the Echo650 acoustic liquid handler (Beckman Coulter, Indianapolis, IN). Negative control wells received 30 nL of DMSO only (0.15% final concentration). Plates were returned to the incubator for 1 hour and then cells were treated with either 5 uL of growth medium or 5 uL of growth medium containing 500 ng/mL of recombinant mouse IFN-gamma protein (R&D Systems, Minneapolis, MN, #485-MI/CF, 100 ng/mL final concentration) using the Assist automated pipetting platform (INTEGRA Biosciences, Hudson, NH). Plates were incubated at 37 C for 1 hour and assayed for phosphorylated STAT1 protein levels with the phospho-STAT1 (Tyr701) HTRF kit (Cisbio, Bedford, MA, #63ADK026PEH) according to the manufacturer's instructions.
In general terms: In TR-FRET formats the signal depends on donor and acceptor labels being close together.

The next assay relates to B16-F10 cells. The experiment in a line: Cell proliferation assay (CellTiter-Glo) in B16-F10 cells with IFN-gamma. As to conditions: 120 h, mouse IFN-gamma 10 ng/mL, read-out: PTPN2 Prolif 5d B16F10 EC50. The class given is cell-based.

Turning to `Cc1ccc(NCc2cc(O)c(N3CC(=O)NS3(=O)=O)c(F)c2)nc1` [EXAMPLE 14, 5-[2-fluoro-6-hydroxy-4-[[(5-methyl-2-pyridyl)amino]methyl]phenyl]-1,1-dioxo-1,2,5-thiadiazolidin-3-one], the half-maximal inhibitory concentration (IC50) at PTPN2 [1] and at PTPN2 [2] was 10 nM throughout. The concentration giving a half-maximal response (EC50) in assay [3] stood at 750 nM; with B16-F10 cells, 610 nM.
For `Cc1ccc(NCc2cc(O)c(N3CC(=O)NS3(=O)=O)c(F)c2)nc1C` [EXAMPLE 19, 5-[4-[[(5,6-dimethyl-2-pyridyl)amino]methyl]-2-fluoro-6-hydroxy-phenyl]-1,1-dioxo-1,2,5-thiadiazolidin-3-one], the IC50 at PTPN2 [1] was determined as 2 nM; at PTPN2 [2] it was 5 nM. Moreover, the EC50 in assay [3] is 310 nM; in the assay on B16-F10 cells, 190 nM.
In the same order, the values of `COc1cnc(NCc2cc(O)c(N3CC(=O)NS3(=O)=O)c(F)c2)cc1OC` [EXAMPLE 26, 5-[4-[[(4,5-dimethoxy-2-pyridyl)amino]methyl]-2-fluoro-6-hydroxy-phenyl]-1,1-dioxo-1,2,5-thiadiazolidin-3-one] are 10 nM, 10 nM, 340 nM and 740 nM.
In the same order, the values of `Cc1cc(C)nc(NCc2cc(O)c(N3CC(=O)NS3(=O)=O)c(F)c2)c1` [EXAMPLE 5, 5-[4-[[(4,6-dimethyl-2-pyridyl)amino]methyl]-2-fluoro-6-hydroxy-phenyl]-1,1-dioxo-1,2,5-thiadiazolidin-3-one] are 1 nM, 1 nM, 30 nM and 50 nM.
Turning to `COc1cnc(NCc2cc(O)c(N3CC(=O)NS3(=O)=O)c(F)c2)c(OC)c1` [EXAMPLE 30, 5-[4-[[(3,5-dimethoxy-2-pyridyl)amino]methyl]-2-fluoro-6-hydroxy-phenyl]-1,1-dioxo-1,2,5-thiadiazolidin-3-one], the 50% inhibitory concentration (IC50) on PTPN2 [1] came to 20 nM; at PTPN2 [2] it was 140 nM. The EC50 in assay [3] was found to be 1780 nM; with B16-F10 cells it was 1720 nM.
The corresponding values for `Cc1cnc(NCc2cc(O)c(N3CC(=O)NS3(=O)=O)c(F)c2)cc1C` [EXAMPLE 28, 5-[4-[[(4,5-dimethyl-2-pyridyl)amino]methyl]-2-fluoro-6-hydroxy-phenyl]-1,1-dioxo-1,2,5-thiadiazolidin-3-one] are 1 nM, 2 nM, 130 nM and 280 nM.
With `CC(C)(C)c1ccc(NCc2cc(O)c(N3CC(=O)NS3(=O)=O)c(F)c2)nc1` [EXAMPLE 4, 5-[4-[[(5-tert-butyl-2-pyridyl)amino]methyl]-2-fluoro-6-hydroxy-phenyl]-1,1-dioxo-1,2,5-thiadiazolidin-3-one], the half-maximal inhibitory concentration (IC50) at PTPN2 [1] was 30 nM; on PTPN2 [2], 8 nM. In addition, the EC50 came to 1030 nM in assay [3] and 670 nM with B16-F10 cells.
In the same order, the values of `O=C1CN(c2c(O)cc(CNc3ccc(C4CC4)cn3)cc2F)S(=O)(=O)N1` [EXAMPLE 10, 5-[4-[[(5-cyclopropyl-2-pyridyl)amino]methyl]-2-fluoro-6-hydroxy-phenyl]-1,1-dioxo-1,2,5-thiadiazolidin-3-one] are 3 nM, 40 nM, 570 nM and 610 nM.
In the same order, the values of `O=C1CN(c2c(O)cc(CNc3ccc(OCc4ccccc4)cn3)cc2F)S(=O)(=O)N1` [EXAMPLE 47, 5-[4-[[(5-benzyloxy-2-pyridyl)amino]methyl]-2-fluoro-6-hydroxy-phenyl]-1,1-dioxo-1,2,5-thiadiazolidin-3-one] are 40 nM, 1460 nM, 6360 nM and 13300 nM.
Take `CCc1cccnc1NCc1cc(O)c(N2CC(=O)NS2(=O)=O)c(F)c1` [EXAMPLE 23, 5-[4-[[(3-ethyl-2-pyridyl)amino]methyl]-2-fluoro-6-hydroxy-phenyl]-1,1-dioxo-1,2,5-thiadiazolidin-3-one]: the figures for the IC50 on PTPN2 [1] and at PTPN2 [2] were 30 nM and 510 nM, respectively. Also, the EC50 in assay [3] stood at 1510 nM; in the assay on B16-F10 cells it was 14100 nM.
In the same order, the values of `CC(C)c1ccc(NCc2cc(O)c(N3CC(=O)NS3(=O)=O)c(F)c2)nc1` [EXAMPLE 45, 5-[2-fluoro-6-hydroxy-4-[[(5-isopropyl-2-pyridyl)amino]methyl]phenyl]-1,1-dioxo-1,2,5-thiadiazolidin-3-one] are 7 nM, 60 nM, 1490 nM and 1770 nM.
The corresponding values for `COc1cccnc1NCc1cc(O)c(N2CC(=O)NS2(=O)=O)c(F)c1` [EXAMPLE 34, 5-[2-fluoro-6-hydroxy-4-[[(3-methoxy-2-pyridyl)amino]methyl]phenyl]-1,1-dioxo-1,2,5-thiadiazolidin-3-one] are over 10000 nM, 10000 nM, over 15000 nM and over 15000 nM.
Consider `Cc1cnc(NCc2cc(O)c(N3CC(=O)NS3(=O)=O)c(F)c2)cc1F` [EXAMPLE 33, 5-[2-fluoro-4-[[(4-fluoro-5-methyl-2-pyridyl)amino]methyl]-6-hydroxy-phenyl]-1,1-dioxo-1,2,5-thiadiazolidin-3-one], for which the half-maximal inhibitory concentration (IC50) on PTPN2 [1] is 20 nM; at PTPN2 [2], 40 nM. Also, the results for the EC50 (in assay [3]; with B16-F10 cells) were 510 nM and 970 nM, respectively.
Regarding `Cc1cc(NCc2cc(O)c(N3CC(=O)NS3(=O)=O)c(F)c2)ncc1F` [EXAMPLE 31, 5-[2-fluoro-4-[[(5-fluoro-4-methyl-2-pyridyl)amino]methyl]-6-hydroxy-phenyl]-1,1-dioxo-1,2,5-thiadiazolidin-3-one], the 50% inhibitory concentration (IC50) at PTPN2 [1] is 20 nM; on PTPN2 [2] it was 50 nM. Also, the EC50 is 1190 nM in assay [3] and 1530 nM with B16-F10 cells.
In the same order, the values of `O=C1CN(c2c(O)cc(CNc3cc(OC4CC4)ccn3)cc2F)S(=O)(=O)N1` [EXAMPLE 6, 5-[4-[[[4-(cyclopropoxy)-2-pyridyl]amino]methyl]-2-fluoro-6-hydroxy-phenyl]-1,1-dioxo-1,2,5-thiadiazolidin-3-one] are 3 nM, 10 nM, 140 nM and 170 nM.
The corresponding values for `O=C1CN(c2c(O)cc(CNc3cc(F)ccn3)cc2F)S(=O)(=O)N1` [EXAMPLE 16, 5-[2-fluoro-4-[[(4-fluoro-2-pyridyl)amino]methyl]-6-hydroxy-phenyl]-1,1-dioxo-1,2,5-thiadiazolidin-3-one] are 20 nM, 200 nM, 1240 nM and 1030 nM.

The term IC50 denotes the concentration needed to halve the response being measured. The EC50 is the concentration giving half of the maximal effect.
